Assay results published in patent publication US6610725B1, “Fluorinated imidazoline benzodioxane, preparation and therapeutic uses thereof” (Pierre Fabre Medicament, priority 1999, dated 2003).
Entries after “also recorded” stand apart in the source; their conditions may differ. Where a name gives a salt, the structure may show the parent alone.

Key:
[1] = test system: α1 or α2 receptors; conditions: from J. Med. Chem. publications; cited from earlier work
[2] = test system: α2-adrenergic receptors; assay: Inhibition of the hypothermia induced with guanabenz; format: in vivo; conditions: for ED50 inhibition of hypothermia / Range of active doses, inhibition of hypothermia / ED50 normalization of hypothermia / Range of active doses, normalization of hypothermia: i.p.; for Range of active doses, normalization of hypothermia: normalization (return to normal temperature); for Number of doses inducing the inhibition of hypothermia in 100% of the animals: each dose separated by a factor of 4
Method: The assessment of the biological activity of the compounds of the invention is also carried out in vivo by studying the inhibition of the hypothermia induced with a central α2-agonist such as guanabenz according to the protocol of S. C. Dilsaver, Pharmacol. Biochem. Behav., 45, 247, 1993.
The inhibitory capacities are expressed as the ED50 which represent the doses producing a significant inhibition of the hypothermia induced with guanabenz on the one hand, and a normalization, that is to say a return to the normal temperature for the animal, before injection of guanabenz on the other hand. These values are obtained using the method of J. T. Litchfield and F. Wilcoxon (J. Pharmacol. Exp. Ther., 96, 99, 1949). The comparison is made between the 2-methoxy compounds, fluorinated in position 5 (dextrorotatory compound of Example 1) and nonfluorinated: (+) RX 821002, and between the 2-ethoxy, fluorinated in position 5 (dextrorotatory compound of Example 2) and nonfluorinated: (+) RX 811059.

[3] = test system: memory deficit induced with scopolamine; assay: Memory deficit induced with scopolamine (passive avoidance test); format: in vivo; conditions: rats; active doses over the range from 0.04 to 2.5 mg/kg
Source text: In accordance with the cholinergic hypothesis of the phenomena of learning and memory, scopolamine has […] properties in animals and man. Its administration to a healthy person induces certain amnesia symptoms similar to those observed in Alzheimer's disease. It has been proposed that the scopolamine be used as an experimental pharmacological model of this pathology. The similarities between the memory deficits of Alzheimer's disease and those induced with scopolamine in rats have been published (P. Chopin et M. Briley, The effects of raubasine and dihydroergocristine on an […] deficit in passive avoidance learning in rats, J.Pharm.Pharmacol. 42, 375-376, 1990). Scopolamine reduces the capacity for acquisition, memorization and recall in a test of passive avoidance in rats. This involves measuring the reticence, after learning, that the animal has in entering a dark compartment, where it receives a mild electric shock. The administration of scopolamine suppresses this reticence, and the test compounds oppose the effect of scopolamine. The comparison of the products of the present invention is made with the known compound RX 821002, dextrorotatory enantiomer. The experimental protocol is that published by P. Chopin and M. Briley (Effects of four non-cholinergic cognitive enhancers in comparison with tacrine and galanthamine on scopolamine-induced amnesia in rats: Psychopharmacology, 106, 26-30, 1992).

[4] = test system: release of noradrenalin; assay: Release of noradrenalin: normetanephrine level in frontal cortex; format: in vivo; conditions: mice, i.p., 0.01 to 2.5 mg/kg, 60 minutes, cortical tissue, HPLC
Method: The level of normetanephrine, a noradrenalin metabolite, in the cerebral tissues is used as a measurement of the release of noradrenalin. Wood, P. L. and coll. Pharmacological Rev. 40, 163-187, (1988), and J. Neurochem. 48, 574-579, (1987)). The formation of normetanephrine, by the action of catechol O-methyltransferase takes place on the outside of the noradrenergic neurones and its measurement takes account of variations in the release of noradrenalin. This measurement is performed in the frontal cortex, a region innervated mainly by the locus coeruleus.
The test compound is administered intraperitoneally to the mice, which are sacrificed after 60 minutes by irradiation with microwaves (to avoid any artefactual changes in the metabolite levels). After dissection, normetanephrine is assayed by HPLC on the cortical tissue extracts. At doses of 0.01 to 2.5 mg/kg, the assayed normetanephrine represents a level from 125 to 150% higher with the compound of Example 1, relative to (+) RX 821002, under the same conditions.

In the case of `COc1cc2c(cc1OC)OC(OC)(C1=NCCN1)CO2` (stereo not shown), the “Activity relative to unsubstituted idazoxan analog / α2-presynaptic antagonist activity” value [1] is given as “only extremely marginal activity”.

In the case of `Fc1cccc2c1OCC(OCc1ccccc1)(C1=NCCN1)O2` (stereo not shown) (as salt: hydrochloride) (hydrate or solvate) [Example 8, 2-(5-Fluoro-2-benzyloxy-1,4-benzodioxan-2-yl)-imidazoline Hydrochloride], the melting point is reported as 218 °C.

In the case of `CCCOC1(C2=NCCN2)COc2c(F)cccc2O1` (stereo not shown) (as salt: hydrochloride) [Example 3, 2-(5-Fluoro-2-propoxy-1,4-benzodioxan-2-yl)-imidazoline Hydrochloride], the melting point is reported as 206 °C.

With `CC(C)COC1(C2=NCCN2)COc2c(F)cccc2O1` (stereo not shown) (as salt: hydrochloride) [Example 5, 2-(5-Fluoro-2-isobutoxy-1,4-benzodioxan-2-yl)-imidazoline Hydrochloride] the melting point was 206 °C.

For `C=CCOC1(C2=NCCN2)COc2c(F)cccc2O1` (stereo not shown) (as salt: hydrochloride) [Example 7, 2-(5-Fluoro-2-allyloxy-1,4-benzodioxan-2-yl)-imidazoline Hydrochloride], the melting point was 214 °C.

In the case of `CCOC1(C2=NCCN2)COc2c(F)cccc2O1` (stereo not shown) (as salt: salt) [Example 2, 2-(5-Fluoro-2-ethoxy-1,4-benzodioxan-2-yl)-2-imidazoline], the melting point is reported as over 260 °C.

For `CCOC1(C2=NCCN2)COc2ccccc2O1` (single isomer, unassigned; (+)) [(+) RX 811059, 2-ethoxy idazoxan], the “ED50 inhibition of hypothermia” value [2] was 0.08 mg/kg, the “Range of active doses, inhibition of hypothermia” value (“Range … inhibition of hypothermia” for short) [2] was 0.04 to 10 mg/kg and the “ED50 normalization of hypothermia” value [2] was 0.32 mg/kg. The “Range of active doses, normalization of hypothermia” value [2] was 0.16 to 10 mg/kg.

In the case of `COC1(C2=NCCN2)COc2ccccc2O1` (single isomer, unassigned; (+)) [(+) RX 821002, 2-methoxy idazoxan], the “Increase in the time taken to enter the dark compartment by the treated animals, relative to those receiving scopolamine alone (% amplitude of the effect)” value [3] is reported as “not significantly active; also recorded: non-significant”, the “Number of doses inducing the inhibition of hypothermia in 100% of the animals” value [2] is reported as 2 doses and the “ED50 inhibition of hypothermia” value [2] is reported as 0.01 mg/kg. For the same molecule, the “Range … inhibition of hypothermia” value [2] was 0.01 to 10 mg/kg, the “ED50 normalization of hypothermia” value [2] was 0.05 mg/kg and the “Range of active doses, normalization of hypothermia” value [2] was 0.04 to 2.5 mg/kg. The “Doses normalizing the hypothermia in 100% of the animals” value ([2]; list of single doses) was “none”, the “ED50 normalization (per os)” value [2] was 0.56 mg/kg and the “Range of active doses (per os) normalization” value [2] was 0.16 to 10 mg/kg. The “Proportion of the animals in which hypothermia is normalized (maximum reached)” value ([2]; reached at only 2 doses) was 80%.

With `COC1(C2=NCCN2)COc2c(F)cccc2O1` (stereo not shown) [Dextrorotatory compound of Example 1, 2-(5-Fluoro-2-methoxy-1,4-benzodioxan-2-yl)-2-imidazoline] the “Increase in the time taken to enter the dark compartment by the treated animals, relative to those receiving scopolamine alone (% amplitude of the effect)” value [3] was 201%, the “Number of doses inducing the inhibition of hypothermia in 100% of the animals” value [2] was 6 doses and the “ED50 inhibition of hypothermia” value [2] was 0.003 mg/kg. The “Range … inhibition of hypothermia” value [2] was 0.0025 to 40 mg/kg, the “ED50 normalization of hypothermia” value [2] was 0.02 mg/kg and the “Range of active doses, normalization of hypothermia” value [2] was 0.0025 to 10 mg/kg. The “Number of doses normalizing the hypothermia in 100% of the animals” value ([2]; in vivo) was 3 doses, the “ED50 normalization (per os)” value [2] was 0.22 mg/kg and the “Range of active doses (per os) normalization” value [2] was 0.04 to 40 mg/kg.

In the case of `CCOC1(C2=NCCN2)COc2c(F)cccc2O1` (stereo not shown) [Dextrorotatory compound of Example 2, 2-(5-Fluoro-2-ethoxy-1,4-benzodioxan-2-yl)-2-imidazoline], the “Increase in the time taken to enter the dark compartment by the treated animals, relative to those receiving scopolamine alone (% amplitude of the effect)” value [3] is reported as 198%, the “ED50 inhibition of hypothermia” value [2] is reported as 0.02 mg/kg and the “Range … inhibition of hypothermia” value [2] is reported as 0.0025 to 40 mg/kg. For the same molecule, the “ED50 normalization of hypothermia” value [2] was 0.16 mg/kg and the “Range of active doses, normalization of hypothermia” value [2] was 0.01 to 10 mg/kg.

With `COc1cc2c(cc1OC)C(=O)C(CC1CCN(Cc3ccccc3)CC1)C2` (stereo not shown) [Donepezil] the “Increase in the time taken to enter the dark compartment by the treated animals, relative to those receiving scopolamine alone (% amplitude of the effect)” value [3] was 67%.

For `COC1(C2=NCCN2)COc2c(F)cccc2O1` (stereo not shown) [Example 1, 2-(5-Fluoro-2-methoxy-1,4-benzodioxan-2-yl)-2-imidazoline], the “Assayed normetanephrine level relative to (+) RX 821002” value [4] was 125 to 150 % higher.

In the case of `Nc1c2c(nc3ccccc13)CCCC2` [Tacrine], the “Increase in the time taken to enter the dark compartment by the treated animals, relative to those receiving scopolamine alone (% amplitude of the effect)” value [3] is reported as 191%.
